Consider three compounds from article PMC6909939, “Study on the Interactions Between Caffeoylquinic Acids With Bovine Serum Albumin: Spectroscopy, Antioxidant Activity, LC-MS^n, and Molecular Docking Approach” (Frontiers in Chemistry, 2019).

The structures appear in SMILES notation. Where “and” joins values, the source holds several entries; their conditions need not be identical. Equal values may be shown once. Read-outs that look alike come from different tables or passages of the source.

One assay deals with T1, BSA (Bos taurus, UniProt P02769).
T1 construct: purchased AMRESCO
Nature of the assay: CD measurement of BSA secondary structure (α-helix content). On the set-up: species or system bovine. As for the experimental part:
The J-815 automatic recording spectropolarimeter (Japan) equipped with 1.0 mm path length quartz cuvettes was employed to determine the CD spectrum of BSA and CQAs-BSA. All the CD spectra were recorded from 190 to 250 nm at 300 K, and the scanning speeds were all set as 50 nm·min^−1. The concentration of BSA and CQAs was 2.0 × 10^−6 and 10.0 × 10^−6 M, respectively. Each spectrum was scanned for successive three times and corrected by corresponding buffer solution.
Far-UV CD spectrum could monitor the secondary structures changes of BSA. To further study the interaction of CQAs and BSA and accurately detect the changes of the secondary structures of BSA, CD spectra of BSA was performed in with or without CQAs in different solvent systems.

For assay [1], the target named is T2, bovine serum albumin (BSA) (Bos taurus, UniProt P02769).
T2 construct: purchased AMRESCO
Nature of the assay: Fluorescence quenching of BSA by CQAs (Stern-Volmer, double-log, Van't Hoff). It counts as binding. Conditions: for ΔH / ΔS: 300-310 K; for Kd: read-out: Ka (converted); for λa-λj (shift of BSA fluorescence emission): CQA 0 to 5.0 × 10^−6 M. On the procedure:
Fluorescence analysis was determined with the LS-45 fluorophotometer (PerkinElmer, USA). […] The synchronous fluorescence spectrum was recorded at Δλ = 15/60 nm at 300 K. The concentration of BSA was set as 0.2 × 10^−6 M, and the concentrations of CQAs were set as 0~5.0 × 10^−6 M by successive additions. The 3D fluorescence spectrum of BSA (0.2 × 10^−6 M) and the BSA-drug (10:1 mol ratio of protein to ligand) complexes were determined at 200–350 nm in 5 nm increments, and the emission spectrum was set as between 200 and 500 nm.
Static and dynamic quenching were two kinds of quenching mechanisms. Both of them followed the equation of Stern-Volmer (Tang and Jia, [2013]): […]
where F0 and F were the fluorescence intensities of BSA with or without CQAs, respectively; KSV were the Stern-Volmer quenching constants; [Q] was the concentration of CQAs.
Binding constants and binding sites could be determined by double logarithmic curve equation (Hemmateenejad et al., [2012]):
(2) logF0-F/F=logKa+nlog[Q]
where F0 and F were the fluorescence intensities of BSA with or without CQAs, respectively; [Q] was the concentrations of CQAs; Ka was the binding constants and n was the number of binding sites.
The binding force between drugs and BSA was non-covalent interaction, like hydrogen-bond interaction, electrostatic forces, hydrophobic effects and Van der Waals forces (Cheng et al., [2015]). The binding parameters could be employed to determine the types of binding forces. The value of ΔH (enthalpy change) and ΔS (entropy changes) could be determined by Van't Hoff equation: […]
where Ka were the binding constants, R were the gas constants and T was the temperatures. Free energy changes (ΔG) could be determined by the following equation: […]

Another assay relates to bovine serum albumin. Conditions: ref Li et al., 2010; cited from earlier work.

T2 sequence (P02769 25-607): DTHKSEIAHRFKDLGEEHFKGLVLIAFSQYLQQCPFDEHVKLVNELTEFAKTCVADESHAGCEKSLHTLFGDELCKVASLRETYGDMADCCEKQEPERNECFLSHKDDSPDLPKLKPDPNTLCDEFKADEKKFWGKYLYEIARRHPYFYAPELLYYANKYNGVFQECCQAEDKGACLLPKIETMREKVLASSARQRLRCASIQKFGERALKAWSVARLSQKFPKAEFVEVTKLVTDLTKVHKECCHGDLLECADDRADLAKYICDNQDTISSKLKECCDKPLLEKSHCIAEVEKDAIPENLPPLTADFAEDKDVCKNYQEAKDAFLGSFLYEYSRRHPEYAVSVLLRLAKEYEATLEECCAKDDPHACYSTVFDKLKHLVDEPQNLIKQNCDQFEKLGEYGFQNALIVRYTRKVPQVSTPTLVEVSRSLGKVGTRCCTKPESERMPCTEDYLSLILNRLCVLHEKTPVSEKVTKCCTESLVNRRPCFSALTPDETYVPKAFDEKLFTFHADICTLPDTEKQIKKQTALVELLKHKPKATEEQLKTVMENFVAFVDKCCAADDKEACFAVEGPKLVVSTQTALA
T1 sequence (P02769 25-607): as above

For the compound `O=C(C=Cc1ccc(O)c(O)c1)OC1CC(O)(C(=O)O)CC(O)C1O` (stereo not shown) [3-CQA, 3-O-caffeoylquinic acid], the “increase of α-helix content of BSA” value at BSA (Tris-HCl buffer) worked out at 5.15%. Besides, the Fluorescence quenching rate in assay [1] is 40.14% and 32.93%. The ΔG was -8.535 kcal/mol in assay [1] (H2O, 305 K); -8.05 kcal/mol in assay [1] (H2O, 310 K); -8.081 kcal/mol in assay [1] (PBS, 310 K); -9.498 kcal/mol in assay [1] (Tris-HCl, 300 K).
For `O=C(C=Cc1ccc(O)c(O)c1)OC1C(O)CC(O)(C(=O)O)CC1O` (stereo not shown) [4-CQA, 4-O-caffeoylquinic acid], the “increase of α-helix content of BSA” value at BSA (H2O) is 4.84%; at BSA (PBS buffer), 1.97%; on BSA (Tris-HCl buffer), 14.14%. Also, the Fluorescence quenching rate came out at 30.99% in assay [1] (H2O), 22.65% in assay [1] (PBS) and 35.83% in assay [1] (Tris-HCl). The ΔH in assay [1] (H2O) is -60.053 kcal/mol; in assay [1] (PBS), -64.912 kcal/mol; in assay [1] (Tris-HCl) it was -52.079 kcal/mol. Also, the ΔS was -705.46 J·mol^−1·k^−1 in assay [1] (H2O), -774.09 J·mol^−1·k^−1 in assay [1] (PBS) and -588.56 J·mol^−1·k^−1 in assay [1] (Tris-HCl). The KSV in assay [1] (H2O, 300 K) is 83600 L/mol; in assay [1] (H2O, 305 K) it was 60500 L/mol; in assay [1] (H2O, 310 K), 57700 L/mol; in assay [1] (PBS, 300 K) it was 132900 L/mol; in assay [1] (PBS, 305 K) it was 98000 L/mol; in assay [1] (PBS, 310 K) it was 60000 L/mol. The KSV was found to be 189400 L/mol in assay [1] (Tris-HCl, 300 K); 120400 L/mol in assay [1] (Tris-HCl, 305 K); 47100 L/mol in assay [1] (Tris-HCl, 310 K). Besides, the “n (number of binding sites)” value came to 1.3458 in assay [1] (H2O, 300 K); 1.3177 in assay [1] (H2O, 305 K); 1.1102 in assay [1] (H2O, 310 K); 1.3138 in assay [1] (PBS, 300 K); 1.2398 in assay [1] (PBS, 305 K); 1.0835 in assay [1] (PBS, 310 K). Moreover, the “n (number of binding sites)” value in assay [1] (Tris-HCl, 300 K) came to 1.4214; in assay [1] (Tris-HCl, 305 K), 1.2871; in assay [1] (Tris-HCl, 310 K) it was 1.2434. Also, the ΔG was -9.469 kcal/mol in assay [1] (H2O, 300 K); -8.626 kcal/mol in assay [1] (H2O, 305 K); -7.784 kcal/mol in assay [1] (H2O, 310 K); -9.407 kcal/mol in assay [1] (PBS, 300 K); -8.482 kcal/mol in assay [1] (PBS, 305 K); -7.557 kcal/mol in assay [1] (PBS, 310 K). For the same compound, the ΔG in assay [1] (Tris-HCl, 300 K) was -9.878 kcal/mol; in assay [1] (Tris-HCl, 305 K), -9.178 kcal/mol; in assay [1] (Tris-HCl, 310 K), -8.473 kcal/mol. Besides, the Kd in assay [1] (H2O, 300 K) was 0.173 µM; in assay [1] (H2O, 305 K), 0.347 µM; in assay [1] (H2O, 310 K), 4.52 µM; in assay [1] (PBS, 300 K), 0.175 µM; in assay [1] (PBS, 305 K), 0.532 µM; in assay [1] (PBS, 310 K), 5.92 µM. Moreover, the Kd in assay [1] (Tris-HCl, 300 K) is 0.0301 µM; in assay [1] (Tris-HCl, 305 K), 0.238 µM; in assay [1] (Tris-HCl, 310 K), 1.13 µM. The “λa-λj (shift of BSA fluorescence emission)” value in assay [1] (H2O) is -5.5 nm; in assay [1] (PBS) it was -4 nm; in assay [1] (Tris-HCl), 3.5 nm. Further, the “binding affinity change (times) when temperature rises from 300 to 310 K” value in assay [1] (Tris-HCl) is 37.4.
Turning to `O=C(/C=C/c1ccc(O)c(O)c1)O[C@@H]1C[C@](O)(C(=O)O)C[C@@H](O)[C@H]1O` [5-CQA, 5-O-caffeoylquinic acid], the binding constant entry with bovine serum albumin is given as “higher than that of caffeic acid”. The “increase of α-helix content of BSA” value at BSA (H2O) is 0.69%; at BSA (PBS buffer), 0.08%; on BSA (Tris-HCl buffer), 8.16%. Besides, the Fluorescence quenching rate in assay [1] is 35.34% and 32.09%. In addition, in assay [1], the “n (number of binding sites)” value is recorded as 0.9251. Further, the ΔG in assay [1] (Tris-HCl, 300 K) was -10.18 kcal/mol; in assay [1] (Tris-HCl, 305 K), -9.252 kcal/mol; in assay [1] (Tris-HCl, 310 K), -8.325 kcal/mol.
